Assay results from the NIST ThermoML archive (doi:10.1021/je060368x).

Key:
[1] = excess molar enthalpy (molar enthalpy of mixing); xn = mol fraction of the nth substance listed; settings: 298.15 K, 101 kPa, Liquid, Flow calorimetry
[2] = xn = mol fraction of the nth substance listed; settings: 298.15 K, 101 kPa, Liquid
[3] = heat capacity at constant pressure per volume; settings: 298.15 K; 101.33 kPa; Liquid
[4] = heat capacity at constant pressure per volume; xn = mol fraction of the nth substance listed; settings: 298.15 K, 101 kPa, Liquid

CCCCCCCCCCO [decan-1-ol] + C1CCCCC1
[1]
Settings	excess molar enthalpy [kcal/mol]
x2 = 0.164	0.0694
x2 = 0.306	0.118
x2 = 0.431	0.148
x2 = 0.541	0.163
x2 = 0.638	0.166
x2 = 0.726	0.159
x2 = 0.805	0.144
x2 = 0.876	0.122
x2 = 0.941	0.0902

CCCCCCCCCCO [decan-1-ol] + C1CCOCC1
Settings	excess molar enthalpy [kcal/mol]	mass density [kg/m3]
[1], x2 = 0.179	0.14	–
[1], x2 = 0.329	0.229	–
[1], x2 = 0.456	0.27	–
[1], x2 = 0.566	0.282	–
[1], x2 = 0.662	0.271	–
[1], x2 = 0.746	0.243	–
[1], x2 = 0.82	0.198	–
[1], x2 = 0.887	0.142	–
[1], x2 = 0.946	0.075	–
[2], x2 = 0.1017	–	828.6
[2], x2 = 0.2006	–	831.38
[2], x2 = 0.2971	–	834.48
[2], x2 = 0.3995	–	838.2
[2], x2 = 0.4943	–	842.21
[2], x2 = 0.5984	–	847.35
[2], x2 = 0.6979	–	853.12
[2], x2 = 0.8001	–	860.13
[2], x2 = 0.9009	–	868.56

CCCCCCCO [heptan-1-ol] + C1CCCCC1
[1]
Settings	excess molar enthalpy [kcal/mol]
x2 = 0.127	0.0456
x2 = 0.246	0.0867
x2 = 0.359	0.119
x2 = 0.466	0.142
x2 = 0.567	0.154
x2 = 0.662	0.155
x2 = 0.753	0.145
x2 = 0.839	0.126
x2 = 0.922	0.0956

CCCCCCCO [heptan-1-ol] + C1CCOCC1
[2]
Settings	mass density [kg/m3]
x2 = 0.0514	820.57
x2 = 0.1047	822.8
x2 = 0.1988	826.97
x2 = 0.2987	831.67
x2 = 0.4018	836.94
x2 = 0.4976	842.18
x2 = 0.6005	848.37
x2 = 0.6985	854.74
x2 = 0.8002	861.99
x2 = 0.8989	869.83
x2 = 0.9487	874.13

CCCCCCCCCO [nonan-1-ol] + C1CCCCC1
[1]
Settings	excess molar enthalpy [kcal/mol]
x2 = 0.152	0.0608
x2 = 0.287	0.107
x2 = 0.409	0.138
x2 = 0.518	0.156
x2 = 0.617	0.161
x2 = 0.707	0.157
x2 = 0.79	0.143
x2 = 0.866	0.12
x2 = 0.936	0.089

CCCCCCCCCO [nonan-1-ol] + C1CCOCC1
Settings	excess molar enthalpy [kcal/mol]	mass density [kg/m3]
[1], x2 = 0.166	0.13	–
[1], x2 = 0.309	0.211	–
[1], x2 = 0.434	0.254	–
[1], x2 = 0.544	0.27	–
[1], x2 = 0.641	0.263	–
[1], x2 = 0.729	0.238	–
[1], x2 = 0.807	0.197	–
[1], x2 = 0.877	0.143	–
[1], x2 = 0.942	0.0767	–
[2], x2 = 0.0965	–	826.81
[2], x2 = 0.1998	–	830.22
[2], x2 = 0.2989	–	833.75
[2], x2 = 0.3822	–	837.11
[2], x2 = 0.497	–	842.35
[2], x2 = 0.5969	–	847.63
[2], x2 = 0.6983	–	853.74
[2], x2 = 0.8	–	860.8
[2], x2 = 0.9002	–	869.06

CCCCCO [pentan-1-ol] + C1CCCCC1
[1]
Settings	excess molar enthalpy [kcal/mol]
x2 = 0.1	0.0357
x2 = 0.2	0.0692
x2 = 0.3	0.0977
x2 = 0.4	0.125
x2 = 0.5	0.143
x2 = 0.6	0.152
x2 = 0.7	0.149
x2 = 0.8	0.133
x2 = 0.9	0.102

C1CCOCC1 [tetrahydropyran]
Settings	heat capacity [J/K/m3]
[3]	1519000

C1CCOCC1 [tetrahydropyran] + CCCCCCCCCC
[1]
Settings	excess molar enthalpy [kcal/mol]
x1 = 0.182	0.0908
x1 = 0.333	0.143
x1 = 0.461	0.165
x1 = 0.571	0.17
x1 = 0.666	0.16
x1 = 0.75	0.141
x1 = 0.823	0.115
x1 = 0.889	0.0821
x1 = 0.947	0.0428

C1CCOCC1 [tetrahydropyran] + CCCCCCCCO
[2]
Settings	mass density [kg/m3]
x1 = 0.0533	823.35
x1 = 0.0961	824.78
x1 = 0.198	828.58
x1 = 0.2967	832.64
x1 = 0.4014	837.39
x1 = 0.5	842.3
x1 = 0.599	847.86
x1 = 0.7005	854.23
x1 = 0.7999	861.27
x1 = 0.8989	869.3
x1 = 0.9504	873.97

C1CCOCC1 [tetrahydropyran] + CCCCCCO
Settings	heat capacity, [4] [J/K/m3]	mass density, [2] [kg/m3]
x1 = 0.0523	1899000	817.49
x1 = 0.1033	1883000	820.05
x1 = 0.2029	1851000	825.28
x1 = 0.3021	1818000	830.74
x1 = 0.4033	1782000	836.58
x1 = 0.5007	1745000	842.45
x1 = 0.6013	1705000	848.93
x1 = 0.7015	1662000	855.69
x1 = 0.799	1616000	862.7
x1 = 0.8994	1567000	870.44
x1 = 0.9482	1543000	874.45

C1CCOCC1 [tetrahydropyran] + CCCCCO
Settings	excess molar enthalpy, [1] [kcal/mol]	heat capacity, [4] [J/K/m3]	mass density, [2] [kg/m3]
x1 = 0.0486	–	1898000	813.55
x1 = 0.0968	–	1881000	816.55
x1 = 0.11	0.0784	–	–
x1 = 0.2002	–	1846000	823.07
x1 = 0.217	0.144	–	–
x1 = 0.2987	–	1811000	829.33
x1 = 0.323	0.19	–	–
x1 = 0.3966	–	1776000	835.71
x1 = 0.426	0.219	–	–
x1 = 0.4994	–	1738000	842.54
x1 = 0.526	0.232	–	–
x1 = 0.5993	–	1698000	849.33
x1 = 0.625	0.228	–	–
x1 = 0.6972	–	1657000	856.2
x1 = 0.722	0.206	–	–
x1 = 0.8	–	1610000	863.59
x1 = 0.816	0.165	–	–
x1 = 0.8983	–	1564000	870.89
x1 = 0.909	0.0978	–	–
x1 = 0.9495	–	1540000	874.85

C1CCOCC1 [tetrahydropyran] + CCCCO
Settings	heat capacity, [4] [J/K/m3]	mass density, [2] [kg/m3]
x1 = 0.0511	1899000	809.59
x1 = 0.0976	1882000	813.23
x1 = 0.1996	1847000	821.04
x1 = 0.301	1811000	828.64
x1 = 0.3987	1778000	835.87
x1 = 0.499	1739000	843.12
x1 = 0.598	1699000	850.26
x1 = 0.6994	1655000	857.46
x1 = 0.7998	1610000	864.53
x1 = 0.8998	1563000	871.67
x1 = 0.9501	1541000	875.22

C1CCOCC1 [tetrahydropyran] + CCCO
Settings	heat capacity, [4] [J/K/m3]	mass density, [2] [kg/m3]
x1 = 0.0996	1875000	809.78
x1 = 0.1994	1838000	819.29
x1 = 0.2873	1807000	827.18
x1 = 0.3993	1766000	836.57
x1 = 0.4981	1728000	844.4
x1 = 0.6011	1687000	852.07
x1 = 0.7007	1646000	859.15
x1 = 0.7981	1604000	865.77
x1 = 0.9007	1560000	872.46
